Experimental data reported in patent US11911469B2, “Combination of ACAT1 inhibitor and checkpoint antibody for treating cancer” (Shanghai Institutes for Biological Sciences, Chinese …, priority 2016, dated 2024).

Assays:
[1] = test system: CD8+ T cells; assay: Cytokine and cytolytic granule production of stimulated CD8+ T cells; format: cell-based, mouse; conditions: pretreated cells stimulated with 5 μg ml−1 plate-bound anti-CD3/CD28; versus vehicle (DMSO)
Description: Peripheral T cells were isolated from mouse spleen and draining lymph nodes by a CD8^+ or CD4^+ T cell negative selection kit (Stem cell). To analyse the tumour-infiltrating T cells, tumours were first digested by collagenase IV (sigma), and tumour-infiltrating leukocytes were isolated by 40-70% percoll (GE) gradient centrifugation. To measure the effector function of CD8^+ T cells, the isolated cells were first stimulated with 1 μM ionomycin and 50 ng/ml PMA for 4 hours in the presence of 5 μg/ml BFA, and then stained with PERCP-α-CD8a. Next, cells were fixed with 4% PFA and stained with FITC-α-Granzyme B, APC-α-IFNγ and PE-α-TNFα. In general, to gate the cytokine or granule producing cells, T cells without stimulation or stained with isotype control antibody were used as negative controls. This gating strategy is applicable for most of the flow cytometric analyses. To detect the MDSCs (myeloid-derived suppressor cells) in the tumour, the percoll isolated leukocyte were stained with α-CD45, α-CD11b and α-Ly6G (Gr1), the CD45^+ population was gated, after which the MDSC population (CD11b^+ Gr1^+) in CD45^+ were gated.
(§1) CD8^+ T cells were pretreated with vehicle (dimethylsulfoxide, DMSO), CP-113,818 or K604. Then the cells were stimulated with 5 μg ml^−1 plate-bound anti-CD3/CD28, and cytokine and cytolytic granule production was studied. Cytotoxicity of OT-I CTLs pretreated with CP-113,818 or K604 or vehicle was also studied.

[2] = test system: OT-I CTLs; assay: Cytotoxicity of OT-I CTLs against antigen-pulsed EL-4 cells (LDH assay); format: cell-based, mouse; conditions: for cytotoxicity of CD8+ T cells: OT-I CTLs pretreated with compound or vehicle
Description: To generate mature Cytotoxic T lymphocytes (CTLs), splenocytes isolated from Acat1^CKO-OT-I mice or WT OT-I mice were stimulated with OVA257-264 (N4) for 3 days in the presence of 10 ng/ml IL-2. Cells were centrifuged and cultured in fresh medium containing 10 ng/ml IL-2 for 2 more days, after which most of the cells in the culture were CTLs. To measure CD8^+ T-cell cytotoxicity, EL-4 cells were pulsed with 2 nM antigenic peptide (N4, A2, T4, G4, R4 or Catnb) for 30 minutes. After washing EL-4 cells and CTLs three times with PBS, we mixed CTLs and antigen-pulsed EL-4 cells (1×10^5) in the killing medium (phenol free-RPMI 1640, 2% FBS), at the ratio of 1:1, 1:2 and 1:5, respectively. After 4 hours, the cytotoxic efficiency was measured by quantifying the release of endogenous lactate dehydrogenase (LDH) from EL-4 cells using a CytoTox 96 Non-Radioactive Cytotoxicity kit (Promega).
as §1
(§2) To study ACAT1 inhibitors in cancer immunotherapies in mice, melanoma-bearing mice were treated with a potent ACAT-1 inhibitor, avasimibe (Ava), or DMSO control, and tumour size and survival were studied. A combined therapy (avasimibe and anti-PD-1) or monotherapies (avasimibe or anti-PD-1) were also studied and compared in treating melanoma. In a lung cancer model, Lewis lung carcinoma-bearing mice were treated with avasimibe or DMSO control, and tumour multiplicity and survival were studied. Cytokine productions of stimulated human (h) CD8^+ T cells pretreated with avasimibe, CP-113,818, or DMSO. CTL cytotoxicity after avasimibe treatment was measured by the LDH assay. OT-I CTLs were pretreated with avasimibe or vehicle for 6 h and then incubated with EL-4 cells pulsed with OVA257-264 peptide for 4 h.

[3] = test system: Lewis lung carcinoma (LLC); assay: Lewis lung carcinoma (LLC) model, avasimibe therapy; format: in vivo, mice; conditions: avasimibe 15 mg/kg intraperitoneally every 3 days, Day 10 to Day 35; versus DMSO control
Description: The LLC cells were washed twice with PBS and filtered by a 40 μm strainer. After which, the LLC cells (2×10^6) were intravenously injected into WT or Acat1^CKO mice at the age of 8-10 weeks. To detect the tumour multiplicity in the lung, the mice were euthanized at Day 35 post tumour inoculation and tumour numbers in the lung were counted. In the avasimibe therapy, on Day 10 mice were randomly divided into two groups. From Day 10 to Day 35 post tumour inoculation, avasimibe was injected intraperitoneally to the mice at the dose of 15 mg/kg every 3 days.
as §2

[4] = doses at least up to 750 mg four times daily (i.e., 3000 mg/day); cited from earlier work
[5] = test system: human CD8+ T cells; assay: Human CD8+ T-cell cytokine production; format: cell-based; conditions: PBMCs pretreated 12 hours, stimulated with plate-bound α-CD3 and α-CD28 (5 μg/ml each) for 24 hours; versus DMSO
Description: Human peripheral blood mononuclear cells (PBMCs) from healthy donators were stimulated with 5 μg/ml PHA (Sigma) for 2 days and then rested for 1 day. Cells were pretreated with vehicle (DMSO), CP113, 818 or avasimibe for 12 hours and then stimulated with plate-bound α-CD3 (5 μg/ml) and α-CD28 (5 μg/ml) antibodies for 24 hours. Intracellular staining and flow cytometry were used to assess cytokines production of CD8^+ T cells. […] A combined therapy (avasimibe and anti-PD-1) or monotherapies (avasimibe or anti-PD-1) were also studied and compared in treating melanoma. In a lung cancer model, Lewis lung carcinoma-bearing mice were treated with avasimibe or DMSO control, and tumour multiplicity and survival were studied. […] CTL cytotoxicity after avasimibe treatment was measured by the LDH assay. OT-I CTLs were pretreated with avasimibe or vehicle for 6 h and then incubated with EL-4 cells pulsed with OVA257-264 peptide for 4 h.

[6] = test system: B16F10 cells; assay: Skin melanoma mouse model, avasimibe therapy; format: in vivo; conditions: melanoma-bearing mice; avasimibe 15 mg/kg intraperitoneally every 2 days from Day 10; versus DMSO control
Description: B16F10 cells were washed three times with PBS, filtered by a 40 μm strainer. […] From Day 10, tumour size was measured every 2 days, and animal survival rate was recorded every day. Tumour size was calculated as length×width. Mice with tumour size larger than 20 mm at the longest axis were euthanized for ethical consideration. To analyse effector function of tumour-infiltrating T cells, mice were euthanized on Day 16. In the avasimibe therapy, on Day 10 mice bearing tumour of similar size were randomly divided into two groups. From Day 10, avasimibe was injected intraperitoneally to the mice at the dose of 15 mg/kg every 2 days.
as §2, with “OT-I CTLs were pretreated with avasimibe or vehicle for 6 h and then incubated with EL-4 cells pulsed with OVA257-264 peptide for 4 h.” left out

| SMILES | cytolytic granule and cytokine productions of CD8+ T cells [1] | cytotoxicity of CD8+ T cells [2] | further results |
| --- | --- | --- | --- |
| CCCCCCCC[C@H](SCCCCCC)C(=O)Nc1c(SC)cc(C)nc1SC [CP-113,818, (S)-N-(2,4-Bis(methylthio)-6-methylpyridin-3-yl)-2-(hexylthio)decanoic acid amide] | augmented | augmented | – |
| CSc1cc(C)nc(SC)c1NC(=O)CN1CCN(CCSc2nc3ccccc3[nH]2)CC1 [K604, 2-[4-[2-(benzimidazol-2-ylthio)ethyl]piperazin-1yl]-N-[2,4-bis(methylthio)-6-methyl-3-pyridyl]acetamide] | augmented | augmented | – |
| CC[C@H](C)C(=O)O[C@H]1C[C@@H](C)C=C2C=C[C@H](C)[C@H](CC[C@@H]3C[C@@H](O)CC(=O)O3)[C@H]21 [Lovastatin] | significantly decreased | – | – |
| CCN(CC)CCO[C@H]1CC[C@@]2(C)C(=CC[C@@H]3[C@@H]2CC[C@]2(C)C(=O)CC[C@@H]32)C1 [U18666A] | significantly decreased | – | – |
| CC(C)c1cc(C(C)C)c(CC(=O)NS(=O)(=O)Oc2c(C(C)C)cccc2C(C)C)c(C(C)C)c1 [avasimibe, [2,6-di(propan-2-yl)phenyl] N-[2-[2,4,6-tri(propan-2-yl)phenyl]acetyl]sulfamate] | – | – | antitumor effect in Lewis lung carcinoma (tumour multiplicity and survival) [3]: good antitumor effect; tolerability in adult human subjects [4]: well tolerated; effector function of mouse CD8+ T cells ex vivo (CTL cytotoxicity, LDH assay) ([2]; OT-I CTLs pretreated for 6 h, then incubated with OVA257-264 pulsed EL-4 cells for 4 h): enhance; cytokine production of human CD8+ T cells [5]: enhanced; survival time [6]: prolonged; tumour growth [6]: inhibited |
